# In publication PMC8800111 (The Journal of Biological Chemistry, 2021):
# Target: T1, DHFR (Homo sapiens, UniProt P00374)
# T1 sequence (P00374 1-187): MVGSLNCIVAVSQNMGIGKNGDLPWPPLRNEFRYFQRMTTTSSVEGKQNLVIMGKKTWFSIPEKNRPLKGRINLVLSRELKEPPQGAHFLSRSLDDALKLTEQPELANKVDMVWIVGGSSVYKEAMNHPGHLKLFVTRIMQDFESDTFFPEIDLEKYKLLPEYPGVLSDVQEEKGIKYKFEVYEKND
# Conditions: DHFR enzymatic IC50
smiles,measurement,value
CCc1nc(N)nc(N)c1-c1ccc(Cl)cc1 [pyrimethamine],difference in potency between pyrimethamine and methotrexate,~500 fold
